Reference: US20230085307A1, “PYRIDAZINONE COMPOUND AND HERBICIDE” (NISSAN CHEMICAL CORPORATION, priority 2019, published 2023)

Columns and labels:
barnyard grass [1] = assay: Test Example 3: herbicidal effect by foliage application, Wagner pot (Table 18, symbol H); format: in vivo, barnyard grass (Echinochloa crus-galli); conditions: 320 g/ha
Procedure, shortened: (§1)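 Plants were sown in alluvial soil held under 0.1–0.5 cm standing water and grown 14 days in a greenhouse at 25–30 °C. An emulsifiable formulation, water-diluted to the set dose, was then sprayed onto the foliage, and effects were scored three weeks later using previously defined criteria.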

Chinese sprangletop = assay: Test Example 3: herbicidal effect by foliage application, Wagner pot (Table 18, symbol D); format: in vivo, chinese sprangletop (Leptochloa chinensis); conditions: 320 g/ha
Procedure, shortened: as §1

rice flat sedge = assay: Test Example 3: herbicidal effect by foliage application, Wagner pot (Table 18, symbol E); format: in vivo, rice flat sedge (Cyperus iria); conditions: 320 g/ha
Procedure, shortened: as §1

southern crabgrass [2] = assay: Test Example 4: herbicidal effect by soil treatment (Table 19, symbol F); format: in vivo, southern crabgrass (Digitaria ciliaris)
Procedure, shortened: (§2)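 Emulsion of test compound, water-diluted to predetermined amount, sprayed on soil after sowing (seed depth ~1.5 cm, sterilized diluvial soil). Greenhouse, 25–30° C. Effect graded at three weeks post-spray.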

green foxtail [3] = assay: Test Example 4: herbicidal effect by soil treatment (Table 19, symbol G); format: in vivo, green foxtail (Setaria viridis)
Procedure, shortened: as §2

barnyard grass [4] = assay: Test Example 4: herbicidal effect by soil treatment (Table 19, symbol H); format: in vivo, barnyard grass (Echinochloa crus-galli)
Procedure, shortened: as §2

wild oat [5] = assay: Test Example 4: herbicidal effect by soil treatment (Table 19, symbol I); format: in vivo, wild oat (Avena fatua)
Procedure, shortened: as §2

blackgrass [6] = assay: Test Example 4: herbicidal effect by soil treatment (Table 19, symbol J); format: in vivo, blackgrass (Alopecurus myosuroides)
Procedure, shortened: as §2

Italian ryegrass [7] = assay: Test Example 4: herbicidal effect by soil treatment (Table 19, symbol K); format: in vivo, Italian ryegrass (Lolium multiflorum)
Procedure, shortened: as §2

windgrass [8] = assay: Test Example 4: herbicidal effect by soil treatment (Table 19, symbol L); format: in vivo, windgrass (Apera spica-venti)
Procedure, shortened: as §2

velvetleaf [9] = assay: Test Example 4: herbicidal effect by soil treatment (Table 19, symbol M); format: in vivo, velvetleaf (Abutilon theophrasti)
Procedure, shortened: as §2

redroot pigweed [10] = assay: Test Example 4: herbicidal effect by soil treatment (Table 19, symbol N); format: in vivo, redroot pigweed (Amaranthus retroflexus)
Procedure, shortened: as §2

lambsquarters [11] = assay: Test Example 4: herbicidal effect by soil treatment (Table 19, symbol O); format: in vivo, lambsquarters (Chenopodium album)
Procedure, shortened: as §2

chickweed [12] = assay: Test Example 4: herbicidal effect by soil treatment (Table 19, symbol P); format: in vivo, common chickweed (Stellaria media)
Procedure, shortened: as §2

persian speedwell [13] = assay: Test Example 4: herbicidal effect by soil treatment (Table 19, symbol R); format: in vivo, Persian speedwell (Veronica persica)
Procedure, shortened: as §2

southern crabgrass [14] = assay: Test Example 5: herbicidal effect by foliage application, plastic box (Table 20, symbol F); format: in vivo, southern crabgrass (Digitaria ciliaris); conditions: evaluated three weeks after application
Procedure, shortened: (§3)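 Post-emergence foliar test in sterilized diluvial soil. Compound applied as water-diluted emulsion at a predetermined rate to 14-day-old plants; evaluation at three weeks.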

green foxtail [15] = assay: Test Example 5: herbicidal effect by foliage application, plastic box (Table 20, symbol G); format: in vivo, green foxtail (Setaria viridis); conditions: evaluated three weeks after application
Procedure, shortened: as §3

barnyard grass [16] = assay: Test Example 5: herbicidal effect by foliage application, plastic box (Table 20, symbol H); format: in vivo, barnyard grass (Echinochloa crus-galli); conditions: evaluated three weeks after application
Procedure, shortened: as §3

wild oat [17] = assay: Test Example 5: herbicidal effect by foliage application, plastic box (Table 20, symbol I); format: in vivo, wild oat (Avena fatua); conditions: evaluated three weeks after application
Procedure, shortened: as §3

blackgrass [18] = assay: Test Example 5: herbicidal effect by foliage application, plastic box (Table 20, symbol J); format: in vivo, blackgrass (Alopecurus myosuroides); conditions: evaluated three weeks after application
Procedure, shortened: as §3

Italian ryegrass [19] = assay: Test Example 5: herbicidal effect by foliage application, plastic box (Table 20, symbol K); format: in vivo, Italian ryegrass (Lolium multiflorum); conditions: evaluated three weeks after application
Procedure, shortened: as §3

windgrass [20] = assay: Test Example 5: herbicidal effect by foliage application, plastic box (Table 20, symbol L); format: in vivo, windgrass (Apera spica-venti); conditions: evaluated three weeks after application
Procedure, shortened: as §3

velvetleaf [21] = assay: Test Example 5: herbicidal effect by foliage application, plastic box (Table 20, symbol M); format: in vivo, velvetleaf (Abutilon theophrasti); conditions: evaluated three weeks after application
Procedure, shortened: as §3

redroot pigweed [22] = assay: Test Example 5: herbicidal effect by foliage application, plastic box (Table 20, symbol N); format: in vivo, redroot pigweed (Amaranthus retroflexus); conditions: evaluated three weeks after application
Procedure, shortened: as §3

lambsquarters [23] = assay: Test Example 5: herbicidal effect by foliage application, plastic box (Table 20, symbol O); format: in vivo, lambsquarters (Chenopodium album); conditions: evaluated three weeks after application
Procedure, shortened: as §3

chickweed [24] = assay: Test Example 5: herbicidal effect by foliage application, plastic box (Table 20, symbol P); format: in vivo, common chickweed (Stellaria media); conditions: evaluated three weeks after application
Procedure, shortened: as §3

false cleavers = assay: Test Example 5: herbicidal effect by foliage application, plastic box (Table 20, symbol Q); format: in vivo, false cleavers (Galium spurium); conditions: evaluated three weeks after application
Procedure, shortened: as §3

persian speedwell [25] = assay: Test Example 5: herbicidal effect by foliage application, plastic box (Table 20, symbol R); format: in vivo, Persian speedwell (Veronica persica); conditions: evaluated three weeks after application
Procedure, shortened: as §3

[26] = amount of applied herbicide 320 g/ha
[27] = amount of applied herbicide 320 g/ha, foliage application after 14-day growth

Cc1nn(C)c(=O)c(-c2c(-c3ccc4c(c3)OCO4)sc3ccc(F)cc23)c1O [2-090]
herbicidal effect on H (barnyard grass), rating 0-5 (barnyard grass [1]): 5 (Herbicidal rate of 90% or more (almost completely withered))
herbicidal effect on D (Chinese sprangletop), rating 0-5 (Chinese sprangletop): 2 (Herbicidal rate of 20% or more and less than 40%)
herbicidal effect on E (rice flat sedge), rating 0-5 (rice flat sedge): 5 (Herbicidal rate of 90% or more (almost completely withered))
herbicidal effect rating, F: southern crabgrass (southern crabgrass [2]; 320 g/ha): 2 (Herbicidal rate of 20% or more and less than 40%)
herbicidal effect rating, G: green foxtail (green foxtail [3]; 320 g/ha): 3 (Herbicidal rate of 40% or more and less than 70%)
herbicidal effect rating, H: barnyard grass (barnyard grass [4]; 320 g/ha): 2 (Herbicidal rate of 20% or more and less than 40%)
herbicidal effect rating, I: wild oat (wild oat [5]; 320 g/ha): 0 (Herbicidal rate of 5% or less (almost no effect))
herbicidal effect rating, J: blackgrass (blackgrass [6]; 320 g/ha): 2 (Herbicidal rate of 20% or more and less than 40%)
herbicidal effect rating, K: Italian ryegrass (Italian ryegrass [7]; 320 g/ha): 4 (Herbicidal rate of 70% or more and less than 90%)
herbicidal effect rating, L: windgrass (windgrass [8]; 320 g/ha): 0 (Herbicidal rate of 5% or less (almost no effect))
herbicidal effect rating, M: velvetleaf (velvetleaf [9]; 320 g/ha): 5 (Herbicidal rate of 90% or more (almost completely withered))
herbicidal effect rating, N: redroot pigweed (redroot pigweed [10]; 320 g/ha): 5 (Herbicidal rate of 90% or more (almost completely withered))
herbicidal effect rating, O: lambsquarters (lambsquarters [11]; 320 g/ha): 5 (Herbicidal rate of 90% or more (almost completely withered))
herbicidal effect rating, P: chickweed (chickweed [12]; 320 g/ha): 4 (Herbicidal rate of 70% or more and less than 90%)
herbicidal effect rating, R: persian speedwell (persian speedwell [13]; 320 g/ha): 5 (Herbicidal rate of 90% or more (almost completely withered))
herbicidal effect on F: southern crabgrass (southern crabgrass [14]; foliage application, 320 g/ha): 4 (Herbicidal rate of 70% or more and less than 90%)
herbicidal effect on G: green foxtail (green foxtail [15]; foliage application, 320 g/ha): 5 (Herbicidal rate of 90% or more (almost completely withered))
herbicidal effect on H: barnyard grass (barnyard grass [16]; foliage application, 320 g/ha): 5 (Herbicidal rate of 90% or more (almost completely withered))
herbicidal effect on I: wild oat (wild oat [17]; foliage application, 320 g/ha): 3 (Herbicidal rate of 40% or more and less than 70%)
herbicidal effect on J: blackgrass (blackgrass [18]; foliage application, 320 g/ha): 4 (Herbicidal rate of 70% or more and less than 90%)
herbicidal effect on K: Italian ryegrass (Italian ryegrass [19]; foliage application, 320 g/ha): 5 (Herbicidal rate of 90% or more (almost completely withered))
herbicidal effect on L: windgrass (windgrass [20]; foliage application, 320 g/ha): 5 (Herbicidal rate of 90% or more (almost completely withered))
herbicidal effect on M: velvetleaf (velvetleaf [21]; foliage application, 320 g/ha): 5 (Herbicidal rate of 90% or more (almost completely withered))
herbicidal effect on N: redroot pigweed (redroot pigweed [22]; foliage application, 320 g/ha): 5 (Herbicidal rate of 90% or more (almost completely withered))
herbicidal effect on O: lambsquarters (lambsquarters [23]; foliage application, 320 g/ha): 5 (Herbicidal rate of 90% or more (almost completely withered))
herbicidal effect on P: chickweed (chickweed [24]; foliage application, 320 g/ha): 5 (Herbicidal rate of 90% or more (almost completely withered))
herbicidal effect on Q: false cleavers (false cleavers; foliage application, 320 g/ha): 4 (Herbicidal rate of 70% or more and less than 90%)
herbicidal effect on R: persian speedwell (persian speedwell [25]; foliage application, 320 g/ha): 5 (Herbicidal rate of 90% or more (almost completely withered))

CCCC(=O)Oc1c(C)nn(C)c(=O)c1-c1c(-c2ccc(F)cc2)sc2cc(F)c(F)cc12 [5-002]
herbicidal effect on barnyard grass (H) (barnyard grass [1]): 4 (Herbicidal rate of 70% or more and less than 90%)
herbicidal effect on Chinese sprangletop (D) (Chinese sprangletop): 3 (Herbicidal rate of 40% or more and less than 70%)
herbicidal effect on rice flat sedge (E) (rice flat sedge): 0 (Herbicidal rate of 5% or less (almost no effect))
F: southern crabgrass, herbicidal effect grade (southern crabgrass [2]; [26]): 0 (Herbicidal rate of 5% or less (almost no effect))
G: green foxtail, herbicidal effect grade (green foxtail [3]; [26]): 4 (Herbicidal rate of 70% or more and less than 90%)
H: barnyard grass, herbicidal effect grade (barnyard grass [4]; [26]): 3 (Herbicidal rate of 40% or more and less than 70%)
I: wild oat, herbicidal effect grade (wild oat [5]; [26]): 3 (Herbicidal rate of 40% or more and less than 70%)
J: blackgrass, herbicidal effect grade (blackgrass [6]; [26]): 2 (Herbicidal rate of 20% or more and less than 40%)
K: Italian ryegrass, herbicidal effect grade (Italian ryegrass [7]; [26]): 5 (Herbicidal rate of 90% or more (almost completely withered))
L: windgrass, herbicidal effect grade (windgrass [8]; [26]): 5 (Herbicidal rate of 90% or more (almost completely withered))
M: velvetleaf, herbicidal effect grade (velvetleaf [9]; [26]): 3 (Herbicidal rate of 40% or more and less than 70%)
N: redroot pigweed, herbicidal effect grade (redroot pigweed [10]; [26]): 5 (Herbicidal rate of 90% or more (almost completely withered))
O: lambsquarters, herbicidal effect grade (lambsquarters [11]; [26]): 5 (Herbicidal rate of 90% or more (almost completely withered))
P: chickweed, herbicidal effect grade (chickweed [12]; [26]): 4 (Herbicidal rate of 70% or more and less than 90%)
R: persian speedwell, herbicidal effect grade (persian speedwell [13]; [26]): 5 (Herbicidal rate of 90% or more (almost completely withered))
Herbicidal effect by foliage application, F: southern crabgrass (southern crabgrass [14]; [27]): 5 (Herbicidal rate of 90% or more (almost completely withered))
Herbicidal effect by foliage application, G: green foxtail (green foxtail [15]; [27]): 5 (Herbicidal rate of 90% or more (almost completely withered))
Herbicidal effect by foliage application, H: barnyard grass (barnyard grass [16]; [27]): 4 (Herbicidal rate of 70% or more and less than 90%)
Herbicidal effect by foliage application, I: wild oat (wild oat [17]; [27]): 4 (Herbicidal rate of 70% or more and less than 90%)
Herbicidal effect by foliage application, J: blackgrass (blackgrass [18]; [27]): 4 (Herbicidal rate of 70% or more and less than 90%)
Herbicidal effect by foliage application, K: Italian ryegrass (Italian ryegrass [19]; [27]): 5 (Herbicidal rate of 90% or more (almost completely withered))
Herbicidal effect by foliage application, L: windgrass (windgrass [20]; [27]): 5 (Herbicidal rate of 90% or more (almost completely withered))
Herbicidal effect by foliage application, M: velvetleaf (velvetleaf [21]; [27]): 5 (Herbicidal rate of 90% or more (almost completely withered))
Herbicidal effect by foliage application, N: redroot pigweed (redroot pigweed [22]; [27]): 5 (Herbicidal rate of 90% or more (almost completely withered))
Herbicidal effect by foliage application, O: lambsquarters (lambsquarters [23]; [27]): 5 (Herbicidal rate of 90% or more (almost completely withered))
Herbicidal effect by foliage application, P: chickweed (chickweed [24]; [27]): 5 (Herbicidal rate of 90% or more (almost completely withered))
Herbicidal effect by foliage application, Q: false cleavers (false cleavers; [27]): 5 (Herbicidal rate of 90% or more (almost completely withered))
Herbicidal effect by foliage application, R: persian speedwell (persian speedwell [25]; [27]): 5 (Herbicidal rate of 90% or more (almost completely withered))
